Where two headings read alike, the source gives them in different places. Starred links: 1 amine or outer side, 2 acyl side, 3 side chain; linkers in the order of their positions; H or OH if unused. Positions of bridges follow the written chain, without caps; N, C: chain ends. Non-standard residues stand in square brackets, D forms with d. Residues, ends and D or L forms follow the SMILES beside them. No end group written: not given here. ξ: configuration not given here. *: point of attachment. Ahppa(3S,4S) = O=C(C[C@H](O)[C@H](Cc1ccccc1)N[*:1])[*:2]; Phe(4-NO2) = N[C@@H](Cc1ccc([N+](=O)[O-])cc1)C(=O)O; Oic = O=C(O)[C@@H]1C[C@@H]2CCCC[C@@H]2N1; Phe(4-Cl) = N[C@@H](Cc1ccc(Cl)cc1)C(=O)O; X7 = O=C(C(c1ccc(C(F)(F)F)cc1)N1CCNCC1)*; X9 = NC(=O)C[C@H](O)[C@H](Cc1ccccc1)N*; 2Nal = N[C@@H](Cc1ccc2ccccc2c1)C(=O)O; X4 = COc1ccc(C(C(=O)*)N2CCNCC2)cc1OC; X5 = COc1ccc(C(C(=O)*)N2CCNCC2)cc1; X3 = O=C(C(c1cccc(F)c1)N1CCNCC1)*; NMeF = CN[C@@H](Cc1ccccc1)C(=O)O; Tic = O=C(O)[C@@H]1Cc2ccccc2CN1; X8 = O=C(C(c1ccccc1F)N1CCNCC1)*; 2Thi = N[C@@H](Cc1cccs1)C(=O)O; X2 = O=C(C(c1ccccc1)N1CCNCC1)*; ξPhg = NC(C(=O)O)c1ccccc1
Target: T1, human QRFPR (hQRFPR) (Homo sapiens, UniProt Q96P65)
T1 construct: expressed in transfected cells; host or cells: CHO cells, stably transfected with hQRFPR (G418 selection) and Gα16 (hygromycin B selection)
T1 sequence (Q96P65 1-431): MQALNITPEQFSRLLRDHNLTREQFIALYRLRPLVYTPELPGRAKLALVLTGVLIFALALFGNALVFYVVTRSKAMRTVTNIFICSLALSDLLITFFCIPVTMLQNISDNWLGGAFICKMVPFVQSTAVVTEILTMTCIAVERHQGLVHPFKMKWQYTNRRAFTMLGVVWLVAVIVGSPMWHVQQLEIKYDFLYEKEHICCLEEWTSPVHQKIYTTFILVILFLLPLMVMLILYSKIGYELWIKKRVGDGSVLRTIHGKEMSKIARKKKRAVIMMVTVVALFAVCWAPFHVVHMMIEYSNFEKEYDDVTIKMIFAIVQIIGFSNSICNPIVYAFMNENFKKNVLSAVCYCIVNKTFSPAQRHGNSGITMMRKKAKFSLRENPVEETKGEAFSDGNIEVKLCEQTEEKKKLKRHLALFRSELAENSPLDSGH
Assay: Calcium mobilization assay, agonist mode ([Ca2+]i in Gα16-hQRFPR-transfected CHO cells)
Format: cell-based
Procedure: Stably transfected hQRFPR CHO cells were obtained as previously described. The cells were maintained in F-12 nutrient mixture (Ham-F12) medium supplemented with 10% fetal bovine serum, 2 mM glutamine, and penicillin-streptomycin. Expression of Gα16 cells was maintained using selection antibiotic hygromycin B (200 µg/mL) and that of hQRFPR using geneticin G418 (500 µg/mL) (Life Technologies, Villebon-Sur-Yvette, France) in a humidified 5% CO2 atmosphere at 37 °C.
Changes in intracellular Ca^2+ concentrations induced by 26RFa(20–26) analogs in CHO-Gα16-hQRFPR-transfected cells were measured on a benchtop scanning fluorometer Flexstation III (Molecular Devices, Sunnyvale, CA, USA) as previously described. Briefly, 96-well assay black plates with clear bottoms (Corning international, Avon, France) were seeded at a density of 40,000 cells/well 24 h prior to assay. For profiling agonistic experiments, cells were loaded with 2 µM Fluo-4 acetoxymethyl ester (AM) (Invitrogen) for 1 h in the presence of 0.01% pluronic acid, washed thrice, and incubated for 30 min with standard HBSS containing 2.5 mM probenecid and 5 mM HEPES. Compounds to be tested were added at final concentrations ranging from 10^−11 to 10^−5 M in HBSS, and the fluorescence intensity was measured during 3 min. To evaluate the antagonistic potency of the test compounds, cells were incubated with each compound over 15 min after Fluo-4 AM loading. Then, during fluorescence recording, a pulse of 26RFa was administered at a final concentration of 10^−7 M. After subtraction of the mean fluorescence background, the baseline was normalized to 100%. Fluorescence peak values were determined for each concentration of compound.
Calcium experiments were performed in triplicate, and data, expressed as mean ± SEM of at least three distinct experiments, were analyzed with the Prism 8.0 software (Graphpad Software, San Diego, CA, USA). EC50 and the IC50 values were determined from concentration–response curves using a sigmoidal dose–response fit with variable slope from at least three independent determinations. Differences between 26RFa(20–26) and analog activities were analyzed by the Mann–Whitney test. p values < 0.05 were considered significant.

[1] = [Ca2+]i mobilization in Gα16-hQRFPR-transfected CHO cells, mean of at least three independent experiments performed in triplicate, read-out: EC50

Row | EC50 [1] [µM] | EC50 (single prototype curve, triplicate, basal [Ca2+]i mobilization, read-out: EC50 calculated from representative dose–response curves (Figure 3)) [µM] | EC50 ([Ca2+]i mobilization, N-methylated analogs, read-out: EC50) [µM] | Compound
1 | 2.13 | – | – | N=C(N)NCCC[C@H](NC(=O)[C@H](Cc1ccccc1)NC(=O)[C@H](CO)NC(=O)[C@H](Cc1ccc([N+](=O)[O-])cc1)NC(=O)CNC(=O)CN)C(=O)N[C@@H](Cc1ccccc1)C(N)=O [Compound 17, [pNO2Phe^22]26RFa(20–26)] (H-GG[Phe(4-NO2)]SFRF-NH2)
2 | 15.3 | – | – | N=C(N)NCCC[C@H](NC(=O)[C@H](Cc1ccc2ccccc2c1)NC(=O)[C@H](CO)NC(=O)[C@H](Cc1ccccc1)NC(=O)CNC(=O)CN)C(=O)N[C@@H](Cc1ccccc1)C(N)=O [Compound 6, [2Nal^24]26RFa(20–26)] (H-GGFS[2Nal]RF-NH2)
3 | > 10 | – | – | N=C(N)NCCC[C@H](NC(=O)[C@H](Cc1ccccc1)NC(=O)[C@H](CO)NC(=O)C(c1ccccc1F)N1CCNCC1)C(=O)N[C@@H](Cc1ccccc1)C(N)=O (some centres unmarked) [Compound 56, [Cmpi(2-FPhg)^22]26RFa(22–26)] (X8-SFRF-NH2)
4 | 1.98 | – | – | GGWSFRF-NH2 [Compound 8, [Trp^22]26RFa(20–26)]
5 | > 10 | – | – | N=C(N)NCCC[C@H](NC(=O)C(NC(=O)[C@H](CO)NC(=O)[C@H](Cc1ccccc1)NC(=O)CNC(=O)CN)c1ccccc1)C(=O)N[C@@H](Cc1ccccc1)C(N)=O (some centres unmarked) [Compound 21, [Phg^24]26RFa(20–26)] (H-GGFS[ξPhg]RF-NH2)
6 | > 10 | – | – | N=C(N)NCCC[C@H](NC(=O)[C@H](Cc1ccccc1)NC(=O)[C@H](CO)NC(=O)[C@H](Cc1ccccc1)NC(=O)CNC(=O)CN)C(=O)N1[C@H](C(N)=O)C[C@@H]2CCCC[C@@H]21 [Compound 45, [Oic^26]26RFa(20–26)] (H-GGFSFR[Oic]-NH2)
7 | > 10 | – | – | N=C(N)NCCC[C@@H]1NC(=O)[C@H](Cc2ccccc2)NC(=O)[C@H](CO)NC(=O)[C@@H](NC(=O)CNC(=O)CN)CSSC[C@@H](C(N)=O)NC1=O [Compound 47, [Cys^22,26]26RFa(20–26)] (H-GGCSFRC-NH2; disulfide 3-7)
8 | 0.327 | 0.305 | – | N=C(N)NCCC[C@H](NC(=O)[C@H](Cc1ccccc1)NC(=O)[C@H](CO)NC(=O)[C@@H]1Cc2ccccc2CN1C(=O)CNC(=O)CN)C(=O)N[C@@H](Cc1ccccc1)C(N)=O [Compound 28, [Tic^22]26RFa(20–26)] (H-GG[Tic]SFRF-NH2)
9 | > 10 | – | – | COc1ccc(C(C(=O)N[C@@H](CO)C(=O)N[C@@H](Cc2ccccc2)C(=O)N[C@@H](CCCNC(=N)N)C(=O)N[C@@H](Cc2ccccc2)C(N)=O)N2CCNCC2)cc1 (some centres unmarked) [Compound 60, [Cmpi(4-MeOPhg)^22]26RFa(22–26)] (X5-SFRF-NH2)
10 | > 10 | – | – | COc1ccc(C(C(=O)N[C@@H](CO)C(=O)N[C@@H](Cc2ccccc2)C(=O)N[C@@H](CCCNC(=N)N)C(=O)N[C@@H](Cc2ccccc2)C(N)=O)N2CCNCC2)cc1 (some centres unmarked) [Compound 59, [Cmpi(4-MeOPhg)^22]26RFa(22–26)] (X5-SFRF-NH2)
11 | > 10 | – | – | COc1ccc(C(C(=O)N[C@@H](CO)C(=O)N[C@@H](Cc2ccccc2)C(=O)N[C@@H](CCCNC(=N)N)C(=O)N[C@@H](Cc2ccccc2)C(N)=O)N2CCNCC2)cc1OC (some centres unmarked) [Compound 62, [Cmpi(3,4-diMeOPhg)^22]26RFa(22–26)] (X4-SFRF-NH2)
12 | 5 | – | – | N=C(N)NCCC[C@H](NC(=O)[C@H](Cc1ccccc1)NC(=O)[C@H](CO)NC(=O)[C@H](Cc1ccc(Cl)cc1)NC(=O)CNC(=O)CN)C(=O)N[C@@H](Cc1ccccc1)C(N)=O [Compound 14, [Pcp^22]26RFa(20–26)] (H-GG[Phe(4-Cl)]SFRF-NH2)
13 | > 10 | – | – | N=C(N)NCCC[C@H](NC(=O)[C@H](Cc1ccccc1)NC(=O)[C@H](CO)NC(=O)C(c1ccc(C(F)(F)F)cc1)N1CCNCC1)C(=O)N[C@@H](Cc1ccccc1)C(N)=O (some centres unmarked) [Compound 57, [Cmpi(4-TfmPhg)^22]26RFa(22–26)] (X7-SFRF-NH2)
14 | 3.79 | – | – | N=C(N)NCCC[C@H](NC(=O)[C@H](Cc1ccccc1)NC(=O)[C@H](CO)NC(=O)[C@H](Cc1ccccc1)NC(=O)CNC(=O)CN)C(=O)N[C@@H](Cc1ccc2ccccc2c1)C(N)=O [Compound 7, [2Nal^26]26RFa(20–26)] (H-GGFSFR[2Nal]-NH2)
15 | > 10 | – | – | N=C(N)NCCC[C@H](NC(=O)[C@H](Cc1ccccc1)NC(=O)[C@H](CO)NC(=O)C(c1ccccc1)N1CCNCC1)C(=O)N[C@@H](Cc1ccccc1)C(N)=O (some centres unmarked) [Compound 49, [Cmpi(Phg)^22]26RFa(22–26)] (X2-SFRF-NH2)
16 | > 10 | – | – | N=C(N)NCCC[C@H](NC(=O)[C@H](Cc1ccccc1)NC(=O)[C@H](CO)NC(=O)C(c1ccccc1)N1CCNCC1)C(=O)N[C@@H](Cc1ccccc1)C(N)=O (some centres unmarked) [Compound 50, [Cmpi(Phg)^22]26RFa(22–26)] (X2-SFRF-NH2)
17 | 3.56 | – | – | N=C(N)NCCC[C@H](NC(=O)[C@H](Cc1ccccc1)NC(=O)[C@H](CO)NC(=O)C(c1cccc(F)c1)N1CCNCC1)C(=O)N[C@@H](Cc1ccccc1)C(N)=O (some centres unmarked) [Compound 53, [Cmpi(3-FPhg)^22]26RFa(22–26)] (X3-SFRF-NH2)
18 | > 10 | – | – | N=C(N)NCCC[C@H](NC(=O)[C@H](Cc1ccccc1)NC(=O)[C@H](CO)NC(=O)[C@@H]1C[C@@H]2CCCC[C@@H]2N1C(=O)CNC(=O)CN)C(=O)N[C@@H](Cc1ccccc1)C(N)=O [Compound 43, [Oic^22]26RFa(20–26)] (H-GG[Oic]SFRF-NH2)
19 | > 10 | – | – | N=C(N)NCCC[C@H](NC(=O)[C@H](Cc1ccccc1)NC(=O)[C@H](CO)NC(=O)[C@H](Cc1ccccc1)NC(=O)CNC(=O)CN)C(=O)N[C@@H](Cc1ccccc1)[C@@H](O)CC(N)=O [Compound 36, [AHPPA^26]26RFa(20–26)] (H-GGFSFR-X9)
20 | 1.36 | – | – | CN(C(=O)[C@H](CO)NC(=O)[C@H](Cc1ccccc1)NC(=O)CNC(=O)CN)[C@@H](Cc1ccccc1)C(=O)N[C@@H](CCCNC(=N)N)C(=O)N[C@@H](Cc1ccccc1)C(N)=O [Compound 26, [NMePhe^24]26RFa(20–26)] (H-GGFS[NMeF]RF-NH2)
21 | > 10 | – | – | N=C(N)NCCC[C@H](NC(=O)[C@@H](Cc1c[nH]c2ccccc12)NC(=O)[C@H](CO)NC(=O)[C@H](Cc1ccccc1)NC(=O)CNC(=O)CN)C(=O)N[C@@H](Cc1ccccc1)C(N)=O [Compound 38, [DTrp^24]26RFa(20–26)] (H-GGFS[dW]RF-NH2)
22 | 15.1 | – | > 10 | CN(C(=O)CNC(=O)CN)[C@@H](Cc1ccccc1)C(=O)N[C@@H](CO)C(=O)N[C@@H](Cc1ccccc1)C(=O)N[C@@H](CCCNC(=N)N)C(=O)N[C@@H](Cc1ccccc1)C(N)=O [Compound 25, [NMePhe^22]26RFa(20–26)] (H-GG[NMeF]SFRF-NH2)
23 | > 10 | – | – | COc1ccc(C(C(=O)N[C@@H](CO)C(=O)N[C@@H](Cc2ccccc2)C(=O)N[C@@H](CCCNC(=N)N)C(=O)N[C@@H](Cc2ccccc2)C(N)=O)N2CCNCC2)cc1OC (some centres unmarked) [Compound 61, [Cmpi(3,4-diMeOPhg)^22]26RFa(22–26)] (X4-SFRF-NH2)
24 | 2.53 | – | – | N=C(N)NCCC[C@H](NC(=O)[C@H](Cc1cccs1)NC(=O)[C@H](CO)NC(=O)[C@H](Cc1ccccc1)NC(=O)CNC(=O)CN)C(=O)N[C@@H](Cc1ccccc1)C(N)=O [Compound 3, [Thi^24]26RFa(20–26)] (H-GGFS[2Thi]RF-NH2)
25 | > 10 | – | – | N=C(N)NCCC[C@H](NC(=O)[C@@H]1Cc2ccccc2CN1C(=O)[C@H](CO)NC(=O)[C@H](Cc1ccccc1)NC(=O)CNC(=O)CN)C(=O)N[C@@H](Cc1ccccc1)C(N)=O [Compound 29, [Tic^24]26RFa(20–26)] (H-GGFS[Tic]RF-NH2)
26 | > 10 | – | – | CN(C(=O)[C@H](CCCNC(=N)N)NC(=O)[C@H](Cc1ccccc1)NC(=O)[C@H](CO)NC(=O)[C@H](Cc1ccccc1)NC(=O)CNC(=O)CN)[C@@H](Cc1ccccc1)C(N)=O [Compound 27, [NMePhe^26]26RFa(20–26)] (H-GGFSFR[NMeF]-NH2)
27 | 2.85 | – | – | N=C(N)NCCC[C@H](NC(=O)[C@H](Cc1ccccc1)NC(=O)[C@H](CO)NC(=O)C[C@H](O)[C@H](Cc1ccccc1)NC(=O)CNC(=O)CN)C(=O)N[C@@H](Cc1ccccc1)C(N)=O [Compound 34, [AHPPA^22]26RFa(20–26)] (H-GG[Ahppa(3S,4S)]SFRF-NH2)
